One series concerns the target T1, serotonin 1A receptor (Rattus norvegicus, UniProt P19327).
T1 construct: To the receptor fraction of the hippocampus were added a test compound and 0.5 nM of [^3H]; 8-hydroxy-dipropylaminotetralin; from tissue; host or cells: SD rat hippocampus, membrane (receptor) fraction
T1 sequence (P19327 1-422): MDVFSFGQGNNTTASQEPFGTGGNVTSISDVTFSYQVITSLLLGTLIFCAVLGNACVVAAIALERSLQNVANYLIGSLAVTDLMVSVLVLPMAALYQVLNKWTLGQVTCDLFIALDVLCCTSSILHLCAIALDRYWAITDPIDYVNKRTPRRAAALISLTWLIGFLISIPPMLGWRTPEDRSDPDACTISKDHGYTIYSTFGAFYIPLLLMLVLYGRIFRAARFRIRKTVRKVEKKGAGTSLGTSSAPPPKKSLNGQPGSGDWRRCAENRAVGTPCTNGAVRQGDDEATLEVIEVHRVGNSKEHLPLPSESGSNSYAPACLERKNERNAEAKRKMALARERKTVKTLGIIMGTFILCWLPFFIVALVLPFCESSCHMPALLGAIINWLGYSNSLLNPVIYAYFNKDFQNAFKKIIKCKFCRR
As to the kind of experiment: Binding test on [3H] 8-hydroxy-dipropylaminotetralin (serotonin 1A receptor). As to conditions: [3H] 8-OH-DPAT 0.5 nM, receptor fraction of rat hippocampus; read-out: 5HT1a.

The next series has as its target serotonin 2 receptor (Rattus norvegicus, UniProt P14842). Description: Binding test on [3H] ketanserin (serotonin 2 receptor).
Another series addresses α1 adrenalin receptor. Description: Binding test on [3H] prazosin (α1 adrenalin receptor). Details: species or system rat. The following applies: [3H] prazosin about 0.2 nM, receptor fraction of rat cerebral cortex.
Where [1] appears, read: [3H] ketanserin 0.3 nM, receptor fraction of rat cerebral cortex, read-out: 5HT2.

Structures can show the parent of a compound that is named as a salt. Where two headings read alike, the source gives them in different places. Some results are limits rather than exact numbers.

Chain of serotonin 2 receptor (P14842 whole entry): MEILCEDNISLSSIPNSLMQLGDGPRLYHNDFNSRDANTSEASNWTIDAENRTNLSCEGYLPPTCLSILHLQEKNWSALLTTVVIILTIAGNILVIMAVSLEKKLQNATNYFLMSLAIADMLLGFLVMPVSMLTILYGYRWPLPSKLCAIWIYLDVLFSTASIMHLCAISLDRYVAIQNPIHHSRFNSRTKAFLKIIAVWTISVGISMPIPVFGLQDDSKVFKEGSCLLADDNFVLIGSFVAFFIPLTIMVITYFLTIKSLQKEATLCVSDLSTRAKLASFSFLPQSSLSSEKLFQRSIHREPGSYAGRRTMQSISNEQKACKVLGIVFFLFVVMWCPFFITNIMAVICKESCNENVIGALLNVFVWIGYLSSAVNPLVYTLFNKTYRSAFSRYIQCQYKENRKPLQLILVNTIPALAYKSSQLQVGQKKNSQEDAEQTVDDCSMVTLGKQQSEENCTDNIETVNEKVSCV

By melting point is commonly meant the temperature, or range, at which the solid turns liquid. For `COc1ccc2c(c1)N(C1CCN(CCc3ccc(F)cc3)CC1)CCC2` (as salt: hydrochloride), the melting point was 258 °C (dec.).

For `COc1ccc2c(c1)N(C1CCN(CC(=O)c3ccc(F)cc3)CC1)CCC2` (as salt: hydrochloride), the melting point is 153 to 155 °C (dec.).

Take `COc1ccc(C(O)c2ccc3ccn(C4CCN(CCc5ccc(F)cc5)CC4)c3c2)cn1` (centres unmarked) [Example 318, 1-[1-(4-fluorophenethyl)piperidin-4-yl]-6-[(2-methoxypyridin-5-yl)hydroxymethyl]indole Oxalate]: the Ki on serotonin 1A receptor was 1.49 nM; at serotonin 2 receptor (setting [1]), 8.3 nM; on α1 adrenalin receptor, 46.6 nM.

For `CCC(O)c1ccc2ccn(C3CCN(CCc4ccc(F)cc4)CC3)c2c1` (centres unmarked) [Example 319, 1-[1-(4-fluorophenethyl)piperidin-4-yl]-6-(1-hydroxyproyl)indole Oxalate], the Ki at serotonin 1A receptor turned out to be 0.56 nM; at serotonin 2 receptor (setting [1]), 24.5 nM; on α1 adrenalin receptor, 42.5 nM.

With `O=S1(=O)CCCN1Cc1ccc2ccn(C3CCN(CCc4ccc(F)cc4)CC3)c2c1` [Example 326, 1-[1-(4-fluorophenethyl)piperidin-4-yl]-6-(1,3-propanesultam-2-yl)methylindole], the results for the Ki on serotonin 1A receptor, at serotonin 2 receptor (setting [1]) and on α1 adrenalin receptor were 0.4 nM, > 20 nM and 167 nM, respectively.

On to `O=C(CCCO)NCc1ccc2ccn(C3CCN(CCc4ccc(F)cc4)CC3)c2c1` [Example 329, 1-[1-(4-fluorophenethyl)piperidin-4-yl]-6-(4-hydroxybutyroylamidomethyl)indole Oxalate], for which the Ki at serotonin 1A receptor came out at 2.06 nM; on serotonin 2 receptor (setting [1]), 2.41 nM; at α1 adrenalin receptor, 149 nM.

With `CN(c1ccc2ccn(C3CCN(CCc4ccc(F)cc4)CC3)c2c1)S(C)(=O)=O` [Example 335], the Ki at serotonin 1A receptor is 0.22 nM; at serotonin 2 receptor it was > 20 nM; at α1 adrenalin receptor, 28.4 nM.

On to `O=C(Cc1ccc2ccn(C3CCN(CCc4ccc(F)cc4)CC3)c2c1)NCC(O)CO` (centres unmarked) [Example 340, 1-[1-(4-fluorophenethyl)piperidin-4-yl]-6-(1,2-dihydroxypropan-3-yl)carbamoylmethylindole Oxalate], for which the figures for the Ki on serotonin 1A receptor, at serotonin 2 receptor (setting [1]) and at α1 adrenalin receptor were 3.02 nM, 2.84 nM and 340 nM, respectively.

In the case of `O=C(Cc1ccc2ccn(C3CCN(CCc4ccc(F)cc4)CC3)c2c1)NCc1ccccn1` [Example 341, 1-[1-(4-fluorophenethyl)piperidin-4-yl]-6-(pyridin-2-yl)methylcarbamoylmethylindole Oxalate], the Ki is 2.08 nM on serotonin 1A receptor, 0.67 nM on serotonin 2 receptor (setting [1]) and 47.6 nM at α1 adrenalin receptor.

As for `CC(=O)N1CCC(CNC(=O)Cc2ccc3ccn(C4CCN(CCc5ccc(F)cc5)CC4)c3c2)CC1` [Example 343, Oxalate], the Ki on serotonin 1A receptor came to 1.54 nM; at serotonin 2 receptor, 1.64 nM; at α1 adrenalin receptor it was 38.1 nM.

`O=C1NCCN1Cc1ccc2ccn(C3CCN(CCc4ccc(F)cc4)CC3)c2c1` [Example 355, 1-[1-(4-fluorophenethyl)piperidin-4-yl]-6-(2-imidazolidonyl)methylindole]: the results for the Ki at serotonin 1A receptor, on serotonin 2 receptor (setting [1]) and at α1 adrenalin receptor were 0.35 nM, 6.87 nM and 39.5 nM, respectively.

Consider `O=C1CCCN1Cc1ccc2ccn(C3CCN(CCc4ccc(F)cc4)CC3)c2c1` [Example 358, 1-[1-(4-fluorophenethyl)piperidin-4-yl]-6-(2-pyrrolidon-1-yl)methylindole], for which the Ki on serotonin 1A receptor came to 0.73 nM; at serotonin 2 receptor (setting [1]), 14 nM; on α1 adrenalin receptor, 41.8 nM.

On to `CC(=O)N(C)Cc1ccc2ccn(C3CCN(CCc4ccc(F)cc4)CC3)c2c1` [Example 359, 1-[1-(4-fluorophenethyl)piperidin-4-yl]-6-N-methylacetamidomethylindole], for which the Ki came to 0.71 nM on serotonin 1A receptor, 7.39 nM on serotonin 2 receptor (setting [1]) and 75.9 nM at α1 adrenalin receptor.

As for `CC(=O)NCc1ccc2ccn(C3CCN(CCCc4ccc(F)cc4)CC3)c2c1` [Example 360, 1-{1-[3-(4-fluorophenyl)propyl]-piperidin-4-yl}-6-acetamidomethylindole], the Ki on serotonin 1A receptor is 26.6 nM; at serotonin 2 receptor (setting [1]), > 20 nM; on α1 adrenalin receptor it was 690 nM.

As to `CNCc1ccc2ccn(C3CCN(CCc4ccc(F)cc4)CC3)c2c1` [Example 361, 1-[1-(4-fluorophenethyl)piperidin-4-yl]-6-N-methylaminomethylindole], the Ki was 0.27 nM at serotonin 1A receptor, > 20 nM on serotonin 2 receptor (setting [1]) and 77.4 nM on α1 adrenalin receptor.

As for `CCCC(=O)NCc1ccc2ccn(C3CCN(CCc4ccc(F)cc4)CC3)c2c1` [Example 362, 1-[1-(4-fluorophenethyl)piperidin-4-yl]-6-(n-butyryl)aminomethylindole], the Ki on serotonin 1A receptor was 0.46 nM; on serotonin 2 receptor (setting [1]), 3.54 nM; on α1 adrenalin receptor it was 144 nM.

For the compound `O=C(NCc1ccc2ccn(C3CCN(CCc4ccc(F)cc4)CC3)c2c1)n1ccnc1` [Example 368, 1-[1-(4-fluorophenethyl)piperidin-4-yl]-6-imidazocarbonylaminomethylindole], the Ki on serotonin 1A receptor came out at 1.63 nM; at serotonin 2 receptor (setting [1]), 0.56 nM; on α1 adrenalin receptor it was 37.6 nM.

Regarding `O=C(CCO)NCc1ccc2ccn(C3CCN(CCc4ccc(F)cc4)CC3)c2c1` [Example 369, 1-[1-(4-fluorophenethyl)piperidin-4-yl]-6-(3-hydroxypropionylamino)methylindole], the Ki on serotonin 1A receptor stood at 2.02 nM; at serotonin 2 receptor (setting [1]) it was 2.88 nM; on α1 adrenalin receptor it was 121 nM.

For `CC(=O)NCc1ccc2c(C=O)cn(C3CCN(CCc4ccc(F)cc4)CC3)c2c1` [Example 370, 1-[1-(4-fluorophenethyl)piperidin-4-yl]-3-formyl-6-acetamidomethylindole], the Ki at serotonin 1A receptor is > 20 nM; at serotonin 2 receptor (setting [1]), > 20 nM; at α1 adrenalin receptor it was 256 nM.

In the case of `CC(=O)NCc1ccc2c(CO)cn(C3CCN(CCc4ccc(F)cc4)CC3)c2c1` [Example 372, 1-[1-(4-fluorophenethyl)piperidin-4-yl]-3-hydroxymethyl-6-acetamidomethylindole], the values for the Ki on serotonin 1A receptor, on serotonin 2 receptor (setting [1]) and on α1 adrenalin receptor were > 20 nM, > 20 nM and 206 nM, respectively.

Consider `CN(C)CC(=O)NCc1ccc2ccn(C3CCN(CCc4ccc(F)cc4)CC3)c2c1` [Example 375, 1-[1-(4-fluorophenethyl)piperidin-4-yl]-6-(N,N-dimethylaminoacetamido)methylindole], for which the Ki is 1.56 nM at serotonin 1A receptor, 3.37 nM at serotonin 2 receptor (setting [1]) and 61.4 nM at α1 adrenalin receptor.

With `O=C(CN1CCCCC1)NCc1ccc2ccn(C3CCN(CCc4ccc(F)cc4)CC3)c2c1` [Example 376, 1-[1-(4-fluorophenethyl)piperidin-4-yl]-6-[(piperidin-1-yl)acetamido]methylindole], the Ki at serotonin 1A receptor turned out to be 0.91 nM; on serotonin 2 receptor (setting [1]), 2.1 nM; on α1 adrenalin receptor, 46.7 nM.

For the compound `CN(C)CCC(=O)NCc1ccc2ccn(C3CCN(CCc4ccc(F)cc4)CC3)c2c1` [Example 378, 1-[1-(4-fluorophenethyl)piperidin-4-yl]-6-(3-N,N-dimethylaminopropionyl)aminomethylindole], the Ki at serotonin 1A receptor turned out to be 14.2 nM; at serotonin 2 receptor (setting [1]) it was 1.54 nM; on α1 adrenalin receptor, 43.7 nM.

Consider `O=C(CCN1CCCCC1)NCc1ccc2ccn(C3CCN(CCc4ccc(F)cc4)CC3)c2c1` [Example 379, 1-[1-(4-fluorophenethyl)piperidin-4-yl]-6-[3-(piperidin-1-yl)propionylamino]methylindole], for which the Ki at serotonin 1A receptor stood at 9.65 nM; on serotonin 2 receptor (setting [1]) it was 1.25 nM; on α1 adrenalin receptor it was 30.3 nM.

Consider `O=C(CF)NCc1ccc2ccn(C3CCN(CCc4ccccc4F)CC3)c2c1` [Example 381, 1-[1-(2-fluorophenethyl)piperidin-4-yl]-6-fluoroacetamidomethylindole], for which the figures for the Ki on serotonin 1A receptor, at serotonin 2 receptor (setting [1]) and on α1 adrenalin receptor were 1.37 nM, 2.02 nM and 101 nM, respectively.

For `CC(=O)NCc1ccc2ccn(C3CCN(CCc4cccnc4)CC3)c2c1` [Example 386, 1-{1-[2-(3-Pyridyl)ethyl]piperidin-4-yl}-6-acetamidomethylindole], the Ki is 5.38 nM at serotonin 1A receptor, > 20 nM at serotonin 2 receptor (setting [1]) and 26.2 nM on α1 adrenalin receptor.

As to `CC(=O)NCc1ccc2c(C#N)cn(C3CCN(CCc4ccc(F)cc4)CC3)c2c1` [Example 387, 3-cyano-1-[1-(4-fluorophenethyl)piperidin-4-yl]-6-acetamidomethylindole], the Ki on serotonin 1A receptor is 63.5 nM; at serotonin 2 receptor (setting [1]) it was > 20 nM; on α1 adrenalin receptor, 26.2 nM.

Turning to `CC(=O)NCc1ccc2ccn(C3CCN(CCc4ccc(C(C)O)cc4)CC3)c2c1` (centres unmarked) [Example 388, 1-{4-[(1-hydroxyethyl)phenethyl]piperidin-4-yl}-6-acetamidomethylindole], the Ki on serotonin 1A receptor was 2.26 nM; at serotonin 2 receptor (setting [1]), > 20 nM; on α1 adrenalin receptor, 366 nM.

In the case of `O=Cc1ccc2ccn(C3CCN(CCc4ccccc4F)CC3)c2c1` [Example 390, 1-[1-(2-fluorophenethyl)piperidin-4-yl]-6-formylindole], the Ki on serotonin 1A receptor amounted to 0.99 nM; at serotonin 2 receptor (setting [1]), 11.6 nM; at α1 adrenalin receptor it was 34.3 nM.

On to `CC(O)c1ccc2ccn(C3CCN(CCc4ccc(F)cc4)CC3)c2c1` (centres unmarked) [Example 392, 1-[1-(4-fluorophenethyl)piperidin-4-yl]-6-(1-hydroxyethyl)indole Oxalate], for which the Ki at serotonin 1A receptor was 0.65 nM; on serotonin 2 receptor (setting [1]), 38.1 nM; at α1 adrenalin receptor, 25 nM.

Source of the values: patent US6579881B2 (Eisai Co., Ltd., priority 1997, dated 2003).
